Laboratory results reported in ChEMBL document CHEMBL1201862, “PubChem BioAssay data set” (2004).
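Five compound concentrations were applied to cells in 96-well plates for 48 hours; endpoints were derived by simple linear interpolation of the resulting dose-response curve. GI50: concentration for 50% inhibition of growth.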 Calls of active or inactive are those of the source. No stated cut-off is given here; in the data, active = GI50 up to about 1.1 µM and inactive = higher.

Assays:
Test in all cases: DTP human tumour cell line panel, 48 h
MCF7 = test system: MCF7
NCI-H460 = test system: NCI-H460
SN12C = test system: SN12C
T47D = test system: T47D
NCI/ADR-RES = test system: NCI/ADR-RES
UO-31 = test system: UO-31
OVCAR-3 = test system: OVCAR-3
PC-3 = test system: PC-3
HCT-15 = test system: HCT-15
EKVX = test system: EKVX
NCI-H226 = test system: NCI-H226
TK-10 = test system: TK-10
SK-OV-3 = test system: SK-OV-3
Malme-3M = test system: Malme-3M
SF-539 = test system: SF-539
HOP-92 = test system: HOP-92
RPMI-8226 = test system: RPMI-8226
MOLT-4 = test system: MOLT-4
K562 = test system: K562
SNB-75 = test system: SNB-75
OVCAR-8 = test system: OVCAR-8
UACC-257 = test system: UACC-257
SK-MEL-2 = test system: SK-MEL-2
SF-295 = test system: SF-295
COLO 205 = test system: COLO 205
SR = test system: SR
IGROV-1 = test system: IGROV-1
SF-268 = test system: SF-268
RXF 393 = test system: RXF 393
A549 = test system: A549
OVCAR-4 = test system: OVCAR-4
HL-60 = test system: HL-60
M14 = test system: M14
DU-145 = test system: DU-145
SK-MEL-28 = test system: SK-MEL-28
HCC 2998 = test system: HCC 2998
SK-MEL-5 = test system: SK-MEL-5
CCRF-CEM = test system: CCRF-CEM
HOP-62 = test system: HOP-62
NCI-H23 = test system: NCI-H23
MDA-N = test system: MDA-N
U-251 = test system: U-251
SNB-19 = test system: SNB-19
HCT-116 = test system: HCT-116
UACC-62 = test system: UACC-62
SW-620 = test system: SW-620
ACHN = test system: ACHN
MDA-MB-435 = test system: MDA-MB-435
HT-29 = test system: HT-29
OVCAR-5 = test system: OVCAR-5
Hs-578T = test system: Hs-578T
BT-549 = test system: BT-549
LOX IMVI = test system: LOX IMVI
CAKI-1 = test system: CAKI-1
KM12 = test system: KM12
786-0 = test system: 786-0
NCI-H522 = test system: NCI-H522
MDA-MB-231 = test system: MDA-MB-231
A498 = test system: A498

## Cc1ccc(-n2c(=O)c3nn4c(=O)n(-c5ccc(C)cc5)c(=O)c4nn3c2=O)cc1
MCF7
  GI50: > 100 µM (inactive)
NCI-H460
  GI50: > 100 µM (inactive)
SN12C
  GI50: > 100 µM (inactive)
T47D
  GI50: > 100 µM (inactive)
NCI/ADR-RES
  GI50: > 100 µM (inactive)
UO-31
  GI50: > 100 µM (inactive)
OVCAR-3
  GI50: > 100 µM (inactive)
PC-3
  GI50: > 100 µM (inactive)
HCT-15
  GI50: > 100 µM
EKVX
  GI50: > 100 µM (inactive)
NCI-H226
  GI50: > 100 µM (inactive)
TK-10
  GI50: > 100 µM (inactive)
SK-OV-3
  GI50: > 100 µM (inactive)
Malme-3M
  GI50: > 100 µM (inactive)
SF-539
  GI50: > 100 µM (inactive)
HOP-92
  GI50: 45.6 µM (inactive)
RPMI-8226
  GI50: > 100 µM (inactive)
MOLT-4
  GI50: > 100 µM (inactive)
K562
  GI50: > 100 µM (inactive)
SNB-75
  GI50: 58.3 µM (inactive)
OVCAR-8
  GI50: > 100 µM (inactive)
UACC-257
  GI50: > 100 µM (inactive)
SK-MEL-2
  GI50: > 100 µM (inactive)
SF-295
  GI50: > 100 µM (inactive)
COLO 205
  GI50: > 100 µM (inactive)
SR
  GI50: > 100 µM (inactive)
IGROV-1
  GI50: > 100 µM (inactive)
SF-268
  GI50: > 100 µM (inactive)
RXF 393
  GI50: > 100 µM (inactive)
A549
  GI50: > 100 µM (inactive)
OVCAR-4
  GI50: > 100 µM (inactive)
HL-60
  GI50: > 100 µM (inactive)
M14
  GI50: > 100 µM (inactive)
DU-145
  GI50: > 100 µM (inactive)
SK-MEL-28
  GI50: > 100 µM (inactive)
HCC 2998
  GI50: > 100 µM (inactive)
SK-MEL-5
  GI50: > 100 µM (inactive)
CCRF-CEM
  GI50: > 100 µM (inactive)
HOP-62
  GI50: > 100 µM (inactive)
NCI-H23
  GI50: > 100 µM (inactive)
MDA-N
  GI50: > 100 µM (inactive)
U-251
  GI50: > 100 µM (inactive)
SNB-19
  GI50: > 100 µM (inactive)
HCT-116
  GI50: > 100 µM (inactive)
UACC-62
  GI50: > 100 µM (inactive)
SW-620
  GI50: > 100 µM (inactive)
ACHN
  GI50: > 100 µM (inactive)
MDA-MB-435
  GI50: > 100 µM (inactive)
HT-29
  GI50: > 100 µM (inactive)
OVCAR-5
  GI50: > 100 µM (inactive)
Hs-578T
  GI50: > 100 µM (inactive)
BT-549
  GI50: > 100 µM (inactive)
LOX IMVI
  GI50: > 100 µM (inactive)
CAKI-1
  GI50: > 100 µM (inactive)
KM12
  GI50: > 100 µM (inactive)
786-0
  GI50: > 100 µM (inactive)
NCI-H522
  GI50: > 100 µM (inactive)

## Oc1cccc(-c2ccc3c4c2O[C@H]2c5[nH]c6ccccc6c5C[C@@]5(O)[C@@H](C3)N(CC3CC3)CC[C@]425)c1
SN12C
  GI50: 1.67 µM (inactive)
T47D
  GI50: 2.07 µM (inactive)
NCI/ADR-RES
  GI50: 2.11 µM (inactive)
UO-31
  GI50: 1.67 µM (inactive)
OVCAR-3
  GI50: 2 µM (inactive)
PC-3
  GI50: 1.98 µM (inactive)
HCT-15
  GI50: 1.67 µM
EKVX
  GI50: 13.5 µM (inactive)
NCI-H226
  GI50: 3.75 µM (inactive)
TK-10
  GI50: 2.24 µM (inactive)
Malme-3M
  GI50: 1.86 µM (inactive)
SF-539
  GI50: 1.68 µM (inactive)
HOP-92
  GI50: 2.13 µM (inactive)
OVCAR-8
  GI50: 1.83 µM (inactive)
SK-MEL-2
  GI50: 2.46 µM (inactive)
SF-295
  GI50: 1.82 µM (inactive)
COLO 205
  GI50: 2.44 µM (inactive)
IGROV-1
  GI50: 1.74 µM (inactive)
SF-268
  GI50: 1.68 µM (inactive)
RXF 393
  GI50: 1.35 µM (inactive)
A549
  GI50: 1.78 µM (inactive)
OVCAR-4
  GI50: 1.61 µM (inactive)
HL-60
  GI50: 1.65 µM (inactive)
M14
  GI50: 1.7 µM (inactive)
DU-145
  GI50: 1.87 µM (inactive)
MDA-MB-231
  GI50: 2.17 µM (inactive)
SK-MEL-5
  GI50: 3.48 µM (inactive)
CCRF-CEM
  GI50: 1.9 µM (inactive)
NCI-H23
  GI50: 2.3 µM (inactive)
MDA-N
  GI50: 1.67 µM (inactive)
SNB-19
  GI50: 1.64 µM (inactive)
HCT-116
  GI50: 1.82 µM (inactive)
SW-620
  GI50: 1.88 µM (inactive)
ACHN
  GI50: 2.23 µM (inactive)
MDA-MB-435
  GI50: 1.72 µM (inactive)
HT-29
  GI50: 1.7 µM (inactive)
OVCAR-5
  GI50: 1.96 µM (inactive)
Hs-578T
  GI50: 1.74 µM (inactive)
BT-549
  GI50: 10 µM (inactive)
LOX IMVI
  GI50: 1.8 µM (inactive)
CAKI-1
  GI50: 1.75 µM (inactive)
KM12
  GI50: 1.98 µM (inactive)
786-0
  GI50: 1.62 µM (inactive)

## CC(C)(C)OC(=O)NC1CCCC1C(O)(C1=CCCC1)C1=CCCC1 (centres undefined)
NCI-H460
  GI50: > 100 µM (inactive)
SN12C
  GI50: > 100 µM (inactive)
T47D
  GI50: 25.6 µM (inactive)
NCI/ADR-RES
  GI50: > 100 µM (inactive)
OVCAR-3
  GI50: > 100 µM (inactive)
PC-3
  GI50: > 100 µM (inactive)
HCT-15
  GI50: > 100 µM
NCI-H226
  GI50: > 100 µM (inactive)
SK-OV-3
  GI50: > 100 µM (inactive)
HOP-92
  GI50: > 100 µM (inactive)
RPMI-8226
  GI50: > 100 µM (inactive)
MOLT-4
  GI50: > 100 µM (inactive)
SNB-75
  GI50: 48.1 µM (inactive)
OVCAR-8
  GI50: > 100 µM (inactive)
A498
  GI50: > 100 µM (inactive)
UACC-257
  GI50: > 100 µM (inactive)
SK-MEL-2
  GI50: > 100 µM (inactive)
COLO 205
  GI50: > 100 µM (inactive)
SR
  GI50: > 100 µM (inactive)
IGROV-1
  GI50: > 100 µM (inactive)
SF-268
  GI50: > 100 µM (inactive)
RXF 393
  GI50: > 100 µM (inactive)
A549
  GI50: > 100 µM (inactive)
OVCAR-4
  GI50: 67.6 µM (inactive)
HL-60
  GI50: > 100 µM (inactive)
M14
  GI50: > 100 µM (inactive)
DU-145
  GI50: > 100 µM (inactive)
SK-MEL-28
  GI50: > 100 µM (inactive)
HCC 2998
  GI50: > 100 µM (inactive)
MDA-MB-231
  GI50: 43.2 µM (inactive)
SK-MEL-5
  GI50: > 100 µM (inactive)
CCRF-CEM
  GI50: > 100 µM (inactive)
HOP-62
  GI50: > 100 µM (inactive)
NCI-H23
  GI50: > 100 µM (inactive)
MDA-N
  GI50: > 100 µM (inactive)
U-251
  GI50: > 100 µM (inactive)
SNB-19
  GI50: > 100 µM (inactive)
HCT-116
  GI50: > 100 µM (inactive)
UACC-62
  GI50: 51.9 µM (inactive)
SW-620
  GI50: > 100 µM (inactive)
ACHN
  GI50: > 100 µM (inactive)
MDA-MB-435
  GI50: > 100 µM (inactive)
HT-29
  GI50: 76.2 µM (inactive)
OVCAR-5
  GI50: > 100 µM (inactive)
Hs-578T
  GI50: > 100 µM (inactive)
BT-549
  GI50: > 100 µM (inactive)
LOX IMVI
  GI50: > 100 µM (inactive)
KM12
  GI50: > 100 µM (inactive)
786-0
  GI50: > 100 µM (inactive)
